Test results taken from patent US8207156B2, “Substituted pyrazoline compounds, their preparation and use as medicaments” (Laboratorios Del Dr. Esteve, S.A., priority 2005, dated 2012).

Experiments:
CB1 receptor [1] = target: T1, CB1 receptor; test: In-vitro determination of affinity to CB1/CB2-receptors (radioligand [3H]-CP55940 binding); settings: binding data per pharmacological methods part I, table does not say whether human transfected receptor or rat cerebellum
T1 construct: IC50 [nM]; radioligand [3H]-CP55940
Method in brief: (§1)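 Transfected human CB1/CB2 receptors were tested with [3H]-CP55940. In the modified Govaerts method, rat cerebellum membranes (100 µg protein) were incubated with 1 nM [3H]-CP55940 and compound for 1 h at 30 °C in Tris-HCl/MgCl2/EDTA/0.5% BSA, pH 7.4, with 10 µM HU-210 defining non-specific binding. Filter-bound radioactivity was counted in triplicate and analysed by non-linear regression.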

[2] = target: recombinant human cannabinoid 1 receptor (CB1) (Homo sapiens, UniProt P21554); test: In vitro determination of antagonism to CB1-receptor ([35S]GTPγS binding assay, CHO cell membranes); assay type: biochemical; settings: compound at 1 μM against agonist WIN 55,212-2 (3 nM to 3 μM); effect of Rimonabant (1 μM) defined as 100%
Sequence of recombinant human cannabinoid 1 receptor (CB1) (P21554 whole entry): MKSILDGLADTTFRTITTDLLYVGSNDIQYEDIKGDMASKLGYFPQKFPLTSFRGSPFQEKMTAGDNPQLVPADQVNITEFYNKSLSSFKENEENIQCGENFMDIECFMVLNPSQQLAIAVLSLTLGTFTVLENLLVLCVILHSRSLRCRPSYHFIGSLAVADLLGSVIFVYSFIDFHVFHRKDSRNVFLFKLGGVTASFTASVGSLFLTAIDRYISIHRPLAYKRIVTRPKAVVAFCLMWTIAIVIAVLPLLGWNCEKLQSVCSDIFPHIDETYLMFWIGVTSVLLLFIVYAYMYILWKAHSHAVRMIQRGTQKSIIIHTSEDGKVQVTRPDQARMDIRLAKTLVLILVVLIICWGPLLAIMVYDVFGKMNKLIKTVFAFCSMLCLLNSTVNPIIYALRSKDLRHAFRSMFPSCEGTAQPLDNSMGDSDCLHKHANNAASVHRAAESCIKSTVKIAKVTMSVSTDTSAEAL
Protocol: Chinese hamster ovary (CHO) cells stably expressing recombinant human cannabinoid 1 receptor (CB1) were cultured in nutrient mixture Ham's F 12 supplemented with 10% heat-inactivated fetal bovine serum, 2 mM L-glutamine, 50 U/ml penicillin, 50 U/ml streptomycin and 0.5 mg/ml geneticin. In order to obtain cells, culture flasks were washed twice with phosphate buffered saline and scraped. Then, cells were collected by centrifugation (200×g, 10 min) and stored dry at −80° C. Cells were homogenized in ice-cold 20 mM HEPES, 10 mM EDTA (pH 7.5) and centrifuged at 40,000×g for 15 min at 4° C. The membrane pellet was resuspended in 20 mM HEPES, 0.1 mM EDTA (pH 7.5) and centrifuged for 15 min at 4° C. The final membrane pellet was resuspended in 20 mM HEPES, 0.1 mM EDTA (pH 7.5), and divided in aliquots and stored at −80° C. until use.
The reaction was performed in 96-well plates. Membranes (15 μg protein/well) were incubated for 60 min at 30° C. in buffer (50 mM HEPES, 100 mM KCl, 5 mM MgCl2,1 mM EDTA, 0.1% wt/vol bovine serum albumin, 5 μM GDP, saponin (10 μg/ml), 0.5 nM [^35S]GTPγS, pH 7.4) with compound at a final concentration of 1 μM in either the absence or presence of agonist WIN 55, 212-2 between 3 nM and 3 μM. The incubation was terminated by rapid filtration through Millipore Multiscreen glass fiber FB, and rinsed two-times with ice-cold assay buffer. Filter plates were dried and 30 μl of scintillation liquid was added. Radioactivity was determined using a Wallac Microbeta Trilux. Each experiment was performed at least in duplicate. A WIN 55, 212-2 dose-response experiment either alone or in the presence of Rimonabant (1 μM) was systematically performed.
The average of basal [^35S]GTPγS binding was subtracted from all binding data. In order to compare the antagonism results from one screening campaign to another one, the difference between the maximal agonist effect of WIN 55, 212-2 alone, and the maximal antagonism effect due to WIN 55, 212-2 plus Rimonabant (1 μM) was defined as 100%.

CB1 receptor [3] = target: T2, CB1 receptor (UniProt P20272); test: In-vitro determination of affinity to CB1/CB2-receptors (radioligand [3H]-CP55940 binding); settings: for Inhibition [%], 10^−7 M: compound at 10^−7 M; for Inhibition [%], 10^−8 M: compound at 10^−8 M
T2 construct: other: compound at 10^−7 M; radioligand [3H]-CP55940; other: compound at 10^−8 M
Method in brief: as §1

Row | IC50 (CB1 receptor [1]) [nM] | Antagonism [%] [2] [%] | Inhibition [%], 10^−7 M (CB1 receptor [3]) [%] | Inhibition [%], 10^−8 M (CB1 receptor [3]) [%] | IC50 (CB1 receptor [1]; hydrochloride) [nM] | Structure (SMILES)
1 | 562 | 63 | – | – | – | O=C(NN1CCN(C2CCCC2)CC1)C1=NN(c2ccc(Cl)cc2Cl)C(c2ccc(Br)cc2)C1 (centres unmarked) [Example 64, 5-(4-Bromo-phenyl)-1-(2,4-dichloro-phenyl)-4,5-dihydro-1H-pyrazole-3-carboxylic acid (4-cyclopentyl-piperazin-1-yl)-amide]
2 | 794 | 44 | – | – | – | O=C(C1=NN(c2ccc(Cl)cc2Cl)C(c2ccc(Cl)cc2)C1)N1CC=CCC1 (centres unmarked) [Example 74, [5-(4-Chloro-phenyl)-1-(2,4-dichloro-phenyl)-4,5-dihydro-1H-pyrazol-3-yl]-(3,6-dihydro-2H-pyridin-1-yl)-methanone]
3 | > 1000 | 42 | – | – | – | O=C(C1=NN(c2ccc(Cl)cc2Cl)C(c2ccc(Cl)cc2)C1)N1C=NCCC1 (centres unmarked) [Example 75, [5-(4-Chloro-phenyl)-1-(2,4-dichloro-phenyl)-4,5-dihydro-1H-pyrazol-3-yl]-(5,6-dihydro-4H-pyrimidin-1-yl)-methanone]
4 | 398 | 57 | – | – | – | O=C(NC1CCCc2ccccc21)C1=NN(c2ccc(Cl)cc2Cl)C(c2ccc(Cl)cc2)C1 (centres unmarked) [Example 76, 5-(4-Chloro-phenyl)-1-(2,4-dichloro-phenyl)-4,5-dihydro-1H-pyrazole-3-carboxylic acid (1,2,3,4-tetrahydro-naphthalen-1-yl)-amide]
5 | 501 | 56 | – | – | – | C[C@@H]1CN(C(=O)C2=NN(c3ccc(Cl)cc3Cl)C(c3ccc(Cl)cc3)C2)C[C@H](C)O1 (some centres unmarked) [Example 80, [5-(4-Chloro-phenyl)-1-(2,4-dichloro-phenyl)-4,5-dihydro-1H-pyrazol-3-yl]-(2,6-dimethyl-morpholin-4-yl)-methanone]
6 | 708 | 20 | – | – | – | O=C(C1=NN(c2ccc(Cl)cc2Cl)C(c2ccc(Cl)cc2)C1)N1CCCc2ccccc21 (centres unmarked) [Example 81, [5-(4-Chloro-phenyl)-1-(2,4-dichloro-phenyl)-4,5-dihydro-1H-pyrazol-3-yl]-(3,4-dihydro-2H-quinolin-1-yl)-methanone]
7 | 20 | 112 | – | – | – | COc1ccc(C2CC(C(=O)NN3CCCCC3)=NN2c2ccc(Cl)cc2Cl)cc1 (centres unmarked) [Example 106A, 1-(2,4-Dichloro-phenyl)-5-(4-methoxy-phenyl)-4,5-dihydro-1H-pyrazole-3-carboxylic acid piperidin-1-ylamide]
8 | – | – | 50.6 | 33.7 | 24 | Cl.O=C(NN1CCc2ccccc21)C1=NN(c2ccc(Cl)cc2Cl)[C@@H](c2ccc(Cl)cc2)C1 [Example 181, (R)-5-(4-Chloro-phenyl)-1-(2,4-dichloro-phenyl)-4,5-dihydro-1H-pyrazole-3-carboxylic acid (2,3-dihydro-indol-1-yl)-amide hydrochloride]
9 | – | 63 | – | – | 501 | CC1CCCC(C)N1NC(=O)C1=NN(c2ccc(Cl)cc2Cl)C(c2ccc(Cl)cc2)C1.Cl (centres unmarked) [Example 192, 5-(4-Chloro-phenyl)-1-(2,4-dichloro-phenyl)-4,5-dihydro-1H-pyrazole-3-carboxylic acid (2,6-dimethyl-piperidin-1-yl)-amide hydrochloride]

The next lines start with the molecule.

Row | Structure (SMILES) | IC50 (CB1 receptor [1]) [nM] | Antagonism [%] [2] [%] | Inhibition [%], 10^−7 M (CB1 receptor [3]) [%] | Inhibition [%], 10^−8 M (CB1 receptor [3]) [%] | IC50 (CB1 receptor [1]; hydrochloride) [nM]
10 | CC1CCCC(C)N1NC(=O)C1=NN(c2ccc(Cl)cc2Cl)C(c2ccc(Cl)cc2)C1 (centres unmarked) [Example 12, 5-(4-Chloro-phenyl)-1-(2,4-dichloro-phenyl)-4,5-dihydro-1H-pyrazole-3-carboxylic acid (2,6-dimethyl-piperidin-1-yl)-amide] | 250 | 78 | – | – | –
11 | CC1CCCCC1NC(=O)C1=NN(c2ccc(Cl)cc2Cl)C(c2ccc(Cl)cc2)C1 (centres unmarked) [Example 18, 5-(4-Chloro-phenyl)-1-(2,4-dichloro-phenyl)-4,5-dihydro-1H-pyrazole-3-carboxylic acid (2-methyl-cyclohexyl)-amide] | 25.1 | 78 | – | – | –
12 | O=C(C1=NN(c2ccc(Cl)cc2Cl)C(c2ccc(Cl)cc2)C1)N1CCC2CCCCC2C1 (centres unmarked) [Example 22, [5-(4-Chloro-phenyl)-1-(2,4-dichloro-phenyl)-4,5-dihydro-1H-pyrazol-3-yl]-(octahydro-isoquinolin-2-yl)-methanone] | 79.4 | 62 | – | – | –
13 | O=C(NN1CCCCC1)C1=NN(c2ccc(Cl)cc2Cl)C(c2ccc(F)cc2)C1 (centres unmarked) [Example 23, 1-(2,4-Dichloro-phenyl)-5-(4-fluoro-phenyl)-4,5-dihydro-1H-pyrazole-3-carboxylic acid piperidin-1-ylamide] | 39.8 | 91 | – | – | –
14 | CC1Cc2ccccc2N1NC(=O)C1=NN(c2ccc(Cl)cc2Cl)C(c2ccc(Cl)cc2)C1 (centres unmarked) [Example 27, 5-(4-Chloro-phenyl)-1-(2,4-dichloro-phenyl)-4,5-dihydro-1H-pyrazole-3-carboxylic acid (2-methyl-2,3-dihydro-indol-1-yl)-amide] | 117 | 31 | 50.7 | 32.9 | –
15 | O=C(NC1CCCC1)C1=NN(c2ccc(Cl)cc2Cl)C(c2ccc(Cl)cc2)C1 (centres unmarked) [Example 37, 5-(4-Chloro-phenyl)-1-(2,4-dichloro-phenyl)-4,5-dihydro-1H-pyrazole-3-carboxylic acid cyclopentylamide] | 280 | 81 | – | – | –
16 | CC1CCCC(NC(=O)C2=NN(c3ccc(Cl)cc3Cl)C(c3ccc(Cl)cc3)C2)C1 (centres unmarked) [Example 57, 5-(4-Chloro-phenyl)-1-(2,4-dichloro-phenyl)-4,5-dihydro-1H-pyrazole-3-carboxylic acid (3-methyl-cyclohexyl)-amide] | 39.8 | 81 | – | – | –
17 | O=C(NN1CC2CCCC2C1)C1=NN(c2ccc(Cl)cc2Cl)C(c2ccc(Br)cc2)C1 (centres unmarked) [Example 63, 5-(4-Bromo-phenyl)-1-(2,4-dichloro-phenyl)-4,5-dihydro-1H-pyrazole-3-carboxylic acid (hexahydro-cyclopenta[c]pyrrol-2-yl)-amide] | 25.1 | 119 | – | – | –
18 | Cl.O=C(NN1CCc2ccccc21)C1=NN(c2ccc(Cl)cc2Cl)C(c2ccc(Br)cc2)C1 (centres unmarked) [Example 66, 5-(4-Bromo-phenyl)-1-(2,4-dichloro-phenyl)-4,5-dihydro-1H-pyrazole-3-carboxylic acid (2,3-dihydro-indol-1-yl)-amide hydrochloride] | 100 | 86 | – | – | –
19 | O=C(NN1CCCCCC1)C1=NN(c2ccc(Cl)cc2Cl)C(c2ccc(Br)cc2)C1 (centres unmarked) [Example 68, 5-(4-Bromo-phenyl)-1-(2,4-dichloro-phenyl)-4,5-dihydro-1H-pyrazole-3-carboxylic acid azepan-1-ylamide] | 39.8 | 98 | – | – | –
